Test results taken from ChEMBL document CHEMBL1139533, “Structure-activity relationship studies of a series of antiviral and antibacterial aglycon derivatives of the glycopeptide antibiotics vancomycin, eremomycin, and dechloroeremomycin” (J Med Chem, 2005).
In brackets after ≈: the same amount, converted by molar mass.

Assays:
Enterococcus faecium [1] = assay: Minimum inhibitory concentration against glycopeptide susceptible enterococci 568 Enterococcus faecium; format: functional
Enterococcus faecalis [2] = assay: Minimum inhibitory concentration against 559 glycopeptide susceptible enterococci Enterococcus faecalis; format: functional
MOLT-4 = assay: Cytostatic activity to the compound against Molt4/C8 cell line; format: functional, cell-based; details: Homo sapiens
Enterococcus faecium [3] = assay: Minimum inhibitory concentration against glycopeptide resistant enterococci 569 Enterococcus faecium; format: functional
L1210 = assay: Cytostatic activity against L1210 cell line; format: functional, cell-based; details: Mus musculus
[4] = system: Human immunodeficiency virus 1; assay: Effective concentration against human immunodeficiency virus type 1; format: functional, organism-based
Enterococcus faecalis [5] = assay: Minimum inhibitory concentration against glycopeptide resistant enterococci 560 Enterococcus faecalis; format: functional
Staphylococcus aureus [6] = assay: Minimum inhibitory concentration against glycopeptide intermediate-resistant 3797 Staphylococcus aureus; format: functional
Staphylococcus aureus [7] = assay: Minimum inhibitory concentration against glycopeptide intermediate-resistant 3798 Staphylococcus aureus; format: functional
CCRF-CEM = assay: Cytostatic activity to the compound against CEM cell line; format: functional, cell-based; details: Homo sapiens
[8] = system: Human immunodeficiency virus 2; assay: Effective concentration against human immunodeficiency virus type 2; format: functional, organism-based
[9] = system: Staphylococcus epidermidis; assay: Minimum inhibitory concentration against 533 Staphylococcus epidermidis; format: functional
[10] = system: Staphylococcus haemolyticus; assay: Minimum inhibitory concentration against 602 Staphylococcus haemolyticus; format: functional
C3H/3T3 = assay: Minimal cytotoxic concentration to cause an alteration in C3H/3T3 cell line morphology; format: functional; details: Mus musculus
[11] = system: Moloney murine sarcoma virus; assay: Effective concentration against Moloney sarcoma virus; format: functional, organism-based, Viruses

`NC(=O)C[C@@H]1NC(=O)[C@H](N)[C@H](O)c2ccc(c(Cl)c2)Oc2cc3cc(c2O)Oc2ccc(cc2)[C@@H](O)[C@@H]2NC(=O)[C@H](NC(=O)[C@@H]3NC1=O)c1ccc(O)c(c1)-c1c(O)cc(O)cc1[C@@H](C(=O)O)NC2=O` showed an MIC (Enterococcus faecium [1]) greater than 128 µg/mL, an MIC (Enterococcus faecalis [2]) greater than 128 µg/mL and an IC50 (MOLT-4) greater than 250 µM. It also gave an MIC (Enterococcus faecium [3]) greater than 128 µg/mL, an IC50 (L1210) greater than 250 µM and an EC50 [4] of 115 µM. The MIC (Enterococcus faecalis [5]) was greater than 128 µg/mL, the MIC (Staphylococcus aureus [6]) was greater than 128 µg/mL and the MIC (Staphylococcus aureus [7]) was greater than 128 µg/mL. It also gave an IC50 (CCRF-CEM) greater than 250 µM, an EC50 [8] greater than 250 µM and an MIC [9] greater than 128 µg/mL. The MIC [10] was greater than 128 µg/mL, the MCC (C3H/3T3) was no less than 100 µg/mL and the EC50 [11] was greater than 100 µM.
Molecule `NCCCCCCCCCCNC(=O)[C@H]1NC(=O)[C@H]2NC(=O)[C@H](NC(=O)[C@@H]3NC(=O)[C@H](CC(N)=O)NC(=O)[C@H](N)[C@H](O)c4ccc(c(Cl)c4)Oc4cc3cc(c4O)Oc3ccc(cc3Cl)[C@H]2O)c2ccc(O)c(c2)-c2c(O)cc(O)cc21` has an MIC (Enterococcus faecium [1]) greater than 64 µg/mL, an MIC (Enterococcus faecalis [2]) greater than 64 µg/mL and an IC50 (MOLT-4) of no less than 250 µM. It also gave an MIC (Enterococcus faecium [3]) greater than 64 µg/mL, an IC50 (L1210) greater than 250 µM and an EC50 [4] of no less than 25 µM. It also gave an MIC (Enterococcus faecalis [5]) greater than 64 µg/mL, an MIC (Staphylococcus aureus [6]) greater than 32 µg/mL and an MIC (Staphylococcus aureus [7]) greater than 32 µg/mL. The IC50 (CCRF-CEM) was 139 µM, the EC50 [8] was no less than 25 µM and the MIC [9] was greater than 32 µg/mL. The MIC [10] was greater than 32 µg/mL, the MCC (C3H/3T3) was 100 µg/mL and the EC50 [11] was 9.3 µM.
`CN[C@H](CC(C)C)C(=O)N[C@H]1C(=O)N[C@@H](CC(N)=O)C(=O)N[C@H]2C(=O)N[C@H]3C(=O)N[C@H](C(=O)N[C@H](C(=O)O)c4cc(O)cc(O)c4-c4cc3ccc4O)[C@H](O)c3ccc(cc3)Oc3cc2cc(c3O)Oc2ccc(cc2)[C@H]1O` showed an MIC (Enterococcus faecium [1]) of 32 µg/mL (≈ 29.8 µM), an MIC (Enterococcus faecalis [2]) of 32 µg/mL (≈ 29.8 µM) and an IC50 (MOLT-4) greater than 250 µM. It also gave an MIC (Enterococcus faecium [3]) greater than 64 µg/mL, an IC50 (L1210) greater than 250 µM and an EC50 [4] greater than 125 µM. It also gave an MIC (Enterococcus faecalis [5]) greater than 64 µg/mL, an MIC (Staphylococcus aureus [6]) greater than 32 µg/mL and an MIC (Staphylococcus aureus [7]) greater than 32 µg/mL. The IC50 (CCRF-CEM) was greater than 250 µM, the EC50 [8] was greater than 125 µM and the MIC [9] was 32 µg/mL (≈ 29.8 µM). The MIC [10] was greater than 32 µg/mL, the MCC (C3H/3T3) was no less than 100 µg/mL and the EC50 [11] was no less than 100 µM.
Molecule `NC(=O)C[C@@H]1NC(=O)[C@H](N)[C@H](O)c2ccc(c(Cl)c2)Oc2cc3cc(c2O)Oc2ccc(cc2Cl)[C@@H](O)[C@@H]2NC(=O)[C@H](NC(=O)[C@@H]3NC1=O)c1ccc(O)c(c1)-c1c(O)cc(O)cc1[C@@H](C(=O)O)NC2=O` has an MIC (Enterococcus faecium [1]) greater than 128 µg/mL, an MIC (Enterococcus faecalis [2]) greater than 128 µg/mL and an IC50 (MOLT-4) greater than 250 µM. The MIC (Enterococcus faecium [3]) was greater than 128 µg/mL, the IC50 (L1210) was greater than 250 µM and the EC50 [4] was no less than 125 µM. It also gave an MIC (Enterococcus faecalis [5]) greater than 128 µg/mL, an MIC (Staphylococcus aureus [6]) greater than 128 µg/mL and an MIC (Staphylococcus aureus [7]) greater than 128 µg/mL. For the same molecule, the IC50 (CCRF-CEM) was no less than 250 µM, the EC50 [8] was no less than 125 µM and the MIC [9] was greater than 128 µg/mL. The MIC [10] was greater than 128 µg/mL, the MCC (C3H/3T3) was greater than 100 µg/mL and the EC50 [11] was 88 µM.
`NC(=O)C[C@@H]1NC(=O)[C@H](N)[C@H](O)c2ccc(c(Cl)c2)Oc2cc3cc(c2O)Oc2ccc(cc2Cl)[C@@H](O)[C@@H]2NC(=O)[C@H](NC(=O)[C@@H]3NC1=O)c1ccc(O)c(c1)-c1c(O)cc(O)cc1[C@@H](C(=O)NCC13CC4CC(CC(C4)C1)C3)NC2=O` was tested, and the MIC (Enterococcus faecium [1]) was greater than 64 µg/mL, the MIC (Enterococcus faecalis [2]) was greater than 64 µg/mL and the IC50 (MOLT-4) was 178 µM. The MIC (Enterococcus faecium [3]) was greater than 64 µg/mL, the IC50 (L1210) was no less than 250 µM and the EC50 [4] was 20 µM. The MIC (Enterococcus faecalis [5]) was greater than 64 µg/mL, the MIC (Staphylococcus aureus [6]) was greater than 32 µg/mL and the MIC (Staphylococcus aureus [7]) was greater than 32 µg/mL. The IC50 (CCRF-CEM) was no less than 250 µM, the EC50 [8] was 30 µM and the MIC [9] was greater than 32 µg/mL. It also gave an MIC [10] greater than 32 µg/mL, an MCC (C3H/3T3) of no less than 100 µg/mL and an EC50 [11] of 27 µM.
In the case of `CN[C@H](CC(C)C)C(=O)N[C@H]1C(=O)N[C@@H](CC(N)=O)C(=O)N[C@H]2C(=O)N[C@H]3C(=O)N[C@H](C(=O)N[C@H](C(=O)NCC45CC6CC(CC(C6)C4)C5)c4cc(O)cc(O)c4-c4cc3ccc4O)[C@H](O)c3ccc(cc3)Oc3cc2cc(c3O)Oc2ccc(cc2)[C@H]1O`, the MIC (Enterococcus faecium [1]) is reported as 4 µg/mL (≈ 3.27 µM), the MIC (Enterococcus faecalis [2]) is reported as 8 µg/mL (≈ 6.54 µM) and the IC50 (MOLT-4) is reported as 44 µM. The MIC (Enterococcus faecium [3]) was 16 µg/mL (≈ 13.1 µM), the IC50 (L1210) was 58 µM and the EC50 [4] was 8.5 µM. It also gave an MIC (Enterococcus faecalis [5]) of 16 µg/mL (≈ 13.1 µM), an MIC (Staphylococcus aureus [6]) of 8 µg/mL (≈ 6.54 µM) and an MIC (Staphylococcus aureus [7]) of 16 µg/mL (≈ 13.1 µM). The IC50 (CCRF-CEM) was 165 µM, the EC50 [8] was 12 µM and the MIC [9] was 8 µg/mL (≈ 6.54 µM). It also gave an MIC [10] of 16 µg/mL (≈ 13.1 µM), an MCC (C3H/3T3) of 100 µg/mL and an EC50 [11] of 11 µM.
Molecule `NC(=O)C[C@@H]1NC(=O)[C@H](N)[C@H](O)c2ccc(c(Cl)c2)Oc2cc3cc(c2O)Oc2ccc(cc2)[C@@H](O)[C@@H]2NC(=O)[C@H](NC(=O)[C@@H]3NC1=O)c1ccc(O)c(c1)-c1c(O)cc(O)cc1[C@@H](C(=O)NC1C3CC4CC(C3)CC1C4)NC2=O` (stereo not given in full) has an MIC (Enterococcus faecium [1]) greater than 64 µg/mL, an MIC (Enterococcus faecalis [2]) greater than 64 µg/mL and an IC50 (MOLT-4) greater than 250 µM. For the same molecule, the MIC (Enterococcus faecium [3]) was greater than 64 µg/mL, the IC50 (L1210) was greater than 250 µM and the EC50 [4] was 50 µM. It also gave an MIC (Enterococcus faecalis [5]) greater than 64 µg/mL, an MIC (Staphylococcus aureus [6]) greater than 32 µg/mL and an MIC (Staphylococcus aureus [7]) greater than 32 µg/mL. It also gave an IC50 (CCRF-CEM) greater than 250 µM, an EC50 [8] of 50 µM and an MIC [9] greater than 32 µg/mL. For the same molecule, the MIC [10] was greater than 32 µg/mL, the MCC (C3H/3T3) was no less than 100 µg/mL and the EC50 [11] was 22 µM.
With `CN[C@H](CC(C)C)C(=O)N[C@H]1C(=O)N[C@@H](CC(N)=O)C(=O)N[C@H]2C(=O)N[C@H]3C(=O)N[C@H](C(=O)N[C@H](C(=O)NC4C5CC6CC(C5)CC4C6)c4cc(O)cc(O)c4-c4cc3ccc4O)[C@H](O)c3ccc(cc3)Oc3cc2cc(c3O)Oc2ccc(cc2)[C@H]1O` (stereo not given in full) the MIC (Enterococcus faecium [1]) was 8 µg/mL (≈ 6.62 µM), the MIC (Enterococcus faecalis [2]) was 16 µg/mL (≈ 13.2 µM) and the IC50 (MOLT-4) was 185 µM. It also gave an MIC (Enterococcus faecium [3]) of 32 µg/mL (≈ 26.5 µM), an IC50 (L1210) of 129 µM and an EC50 [4] of 8.5 µM. For the same molecule, the MIC (Enterococcus faecalis [5]) was 32 µg/mL (≈ 26.5 µM), the MIC (Staphylococcus aureus [6]) was 16 µg/mL (≈ 13.2 µM) and the MIC (Staphylococcus aureus [7]) was 16 µg/mL (≈ 13.2 µM). It also gave an IC50 (CCRF-CEM) of 185 µM, an EC50 [8] of 21.7 µM and an MIC [9] of 16 µg/mL (≈ 13.2 µM). It also gave an MIC [10] of 16 µg/mL (≈ 13.2 µM), an MCC (C3H/3T3) of 100 µg/mL and an EC50 [11] of 14 µM.
With `CN[C@H](CC(C)C)C(=O)N[C@H]1C(=O)N[C@@H](CC(N)=O)C(=O)N[C@H]2C(=O)N[C@H]3C(=O)N[C@H](C(=O)N[C@H](C(=O)NCCCCCCCCCCN)c4cc(O)cc(O)c4-c4cc3ccc4O)[C@H](O)c3ccc(cc3)Oc3cc2cc(c3O)Oc2ccc(cc2)[C@H]1O` the MIC (Enterococcus faecium [1]) was 8 µg/mL (≈ 6.51 µM), the MIC (Enterococcus faecalis [2]) was 16 µg/mL (≈ 13 µM) and the IC50 (MOLT-4) was 106 µM. The MIC (Enterococcus faecium [3]) was 64 µg/mL (≈ 52.1 µM), the IC50 (L1210) was 146 µM and the EC50 [4] was 15 µM. The MIC (Enterococcus faecalis [5]) was 32 µg/mL (≈ 26 µM), the MIC (Staphylococcus aureus [6]) was 16 µg/mL (≈ 13 µM) and the MIC (Staphylococcus aureus [7]) was 16 µg/mL (≈ 13 µM). It also gave an IC50 (CCRF-CEM) of 109 µM, an EC50 [8] greater than 25 µM and an MIC [9] of 16 µg/mL (≈ 13 µM). It also gave an MIC [10] of 16 µg/mL (≈ 13 µM), an MCC (C3H/3T3) of 100 µg/mL and an EC50 [11] of 14 µM.
